ChEMBL document CHEMBL1201862, “PubChem BioAssay data set” (2004)
The source made the active and inactive calls.

Assays:
[1] = molecular target: Ion channel NompC (Danio rerio, UniProt Q7T1G6); experiment: Fluorescence counterscreen assay for TRPML3 agonists: dose response cell-based high-throughput screening assay to identify agonists of the transient receptor potential channel N1 (TRPN1). [Related pubchem assays: 1526, 1424, 1448 ]; format: functional
[2] = molecular target: T1, Mucolipin-3 (Homo sapiens, UniProt Q8TDD5); experiment: Dose response cell-based high-throughput screening assay for agonists of the transient receptor potential channel ML3 (TRPML3). [Related pubchem assays: 1526, 1424, 1448 ]; format: functional
T1 sequence (Q8TDD5 whole entry): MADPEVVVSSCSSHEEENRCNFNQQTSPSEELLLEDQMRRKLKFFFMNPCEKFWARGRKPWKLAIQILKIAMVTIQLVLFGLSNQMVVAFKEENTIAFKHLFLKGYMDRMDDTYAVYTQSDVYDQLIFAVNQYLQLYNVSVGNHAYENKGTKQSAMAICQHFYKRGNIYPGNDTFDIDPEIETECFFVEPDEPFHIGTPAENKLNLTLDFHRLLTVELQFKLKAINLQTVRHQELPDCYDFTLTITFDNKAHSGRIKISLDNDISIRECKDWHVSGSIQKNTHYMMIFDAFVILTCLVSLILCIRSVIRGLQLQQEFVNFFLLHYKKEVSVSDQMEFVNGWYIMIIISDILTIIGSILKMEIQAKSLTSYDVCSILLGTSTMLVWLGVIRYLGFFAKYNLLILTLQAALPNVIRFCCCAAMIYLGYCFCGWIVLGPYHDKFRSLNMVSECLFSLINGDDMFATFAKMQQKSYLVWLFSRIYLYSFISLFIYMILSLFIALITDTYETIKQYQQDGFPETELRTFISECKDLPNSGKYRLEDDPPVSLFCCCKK

[3] = molecular target: T2, Heat shock factor protein 1 (Mus musculus, UniProt P38532); experiment: decrease of HSF1-responsive luciferase luminescence – cell-based, NIH3T3, dose retest, confirmation (AID 2382); format: functional;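 also: NIH3T3 fibroblasts with HSF1-driven luciferase reporter stressed by proteasome inhibitor MG132; luminescence from HSF1-driven luciferase expression after 8 hours of MG132 stress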
T2 sequence (P38532 whole entry): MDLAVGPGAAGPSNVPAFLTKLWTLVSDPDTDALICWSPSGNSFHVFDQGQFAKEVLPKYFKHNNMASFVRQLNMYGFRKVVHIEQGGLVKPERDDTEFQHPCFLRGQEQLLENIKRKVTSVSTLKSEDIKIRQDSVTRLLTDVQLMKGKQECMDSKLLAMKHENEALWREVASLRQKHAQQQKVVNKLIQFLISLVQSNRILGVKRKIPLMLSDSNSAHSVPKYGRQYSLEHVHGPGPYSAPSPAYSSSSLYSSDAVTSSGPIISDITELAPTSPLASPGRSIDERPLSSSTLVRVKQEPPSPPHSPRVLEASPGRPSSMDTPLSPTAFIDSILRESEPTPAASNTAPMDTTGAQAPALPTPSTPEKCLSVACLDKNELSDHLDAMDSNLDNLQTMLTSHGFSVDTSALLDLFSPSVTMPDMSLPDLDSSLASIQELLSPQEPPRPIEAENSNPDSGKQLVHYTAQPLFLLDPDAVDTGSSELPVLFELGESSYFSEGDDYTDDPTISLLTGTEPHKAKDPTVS

[4] = A cytotoxicity screen of small molecule inhibitors of the PhoP region in Salmonella typhi identified in the primary screen. [Related pubchem assays: 1850, 1864, 1985 ]; format: functional
[5] = molecular target: DNA dC->dU-editing enzyme APOBEC-3G (Homo sapiens, UniProt Q9HC16); experiment: Dose Response confirmation of small molecule APOBEC3G DNA Deaminase Inhibitors via a fluorescence-based single-stranded DNA deaminase assay. [Related pubchem assays (depositor defined):AID493012, AID493028]; format: functional
[6] = HEK-293T cell viability reduction – luminescence, B-cell screen hits, cytotoxicity control for BCR NF-kB inhibitor project, dose response (AID 489021); format: functional, cell-based;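 also: HEK-293T cells carrying an NF-kB luciferase reporter; cells exposed to compound for about 14 hours before viability readout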
[7] = molecular target: Induced myeloid leukemia cell differentiation protein Mcl-1 (Homo sapiens, UniProt Q07820); format: functional
[8] = system: Streptococcus; experiment: GAS UMAA2166 growth inhibition – luminescence, BacTiterGlo, counter-screen for streptokinase expression inhibitor project, dose response (AID 1915); format: functional, organism-based;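 also: potency for reduction of bacterial viability or growth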
[9] = Luminescence Cell-Based Dose Retest to Confirm Inhibitors of Cancer Stem Cells. [Related pubchem assays (depositor defined):AID2717, AID2721]; format: functional; conditions: Homo sapiens
[10] = molecular target: T3, Streptokinase A (Streptococcus pyogenes serotype M1, UniProt P10520); experiment: viability-normalized secreted streptokinase activity reduction – plasminogen activation absorbance, OD405, dose response (AID 1914); format: functional, Streptococcus pyogenes M1 GAS;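 also: secreted streptokinase activity via plasminogen activation per viability signal from cell pellet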
T3 sequence (P10520 whole entry): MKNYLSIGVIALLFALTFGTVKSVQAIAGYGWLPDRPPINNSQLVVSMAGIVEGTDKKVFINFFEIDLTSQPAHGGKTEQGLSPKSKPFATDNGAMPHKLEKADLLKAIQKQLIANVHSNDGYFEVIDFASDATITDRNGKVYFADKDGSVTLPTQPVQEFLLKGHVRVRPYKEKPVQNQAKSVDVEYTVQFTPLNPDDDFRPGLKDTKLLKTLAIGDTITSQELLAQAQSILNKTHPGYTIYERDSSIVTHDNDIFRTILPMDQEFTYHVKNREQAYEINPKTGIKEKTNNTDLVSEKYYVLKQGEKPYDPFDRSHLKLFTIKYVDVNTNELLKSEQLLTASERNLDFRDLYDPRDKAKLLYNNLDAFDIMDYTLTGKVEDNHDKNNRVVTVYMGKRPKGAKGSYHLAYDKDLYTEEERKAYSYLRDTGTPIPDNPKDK

[11] = system: Streptococcus sp. 'group A'; experiment: Streptococcus pyogenes SK(-)GAS viability under kanamycin – luminescence, BacTiterGlo, confirmation, counter-screen for streptokinase expression inhibitor project, dose response (AID 1900); format: functional, organism-based
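For AC50 in this document: cells exposed to compound for roughly 70 hours or longer before luminescence read.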

Sequence of Ion channel NompC (Q7T1G6 whole entry): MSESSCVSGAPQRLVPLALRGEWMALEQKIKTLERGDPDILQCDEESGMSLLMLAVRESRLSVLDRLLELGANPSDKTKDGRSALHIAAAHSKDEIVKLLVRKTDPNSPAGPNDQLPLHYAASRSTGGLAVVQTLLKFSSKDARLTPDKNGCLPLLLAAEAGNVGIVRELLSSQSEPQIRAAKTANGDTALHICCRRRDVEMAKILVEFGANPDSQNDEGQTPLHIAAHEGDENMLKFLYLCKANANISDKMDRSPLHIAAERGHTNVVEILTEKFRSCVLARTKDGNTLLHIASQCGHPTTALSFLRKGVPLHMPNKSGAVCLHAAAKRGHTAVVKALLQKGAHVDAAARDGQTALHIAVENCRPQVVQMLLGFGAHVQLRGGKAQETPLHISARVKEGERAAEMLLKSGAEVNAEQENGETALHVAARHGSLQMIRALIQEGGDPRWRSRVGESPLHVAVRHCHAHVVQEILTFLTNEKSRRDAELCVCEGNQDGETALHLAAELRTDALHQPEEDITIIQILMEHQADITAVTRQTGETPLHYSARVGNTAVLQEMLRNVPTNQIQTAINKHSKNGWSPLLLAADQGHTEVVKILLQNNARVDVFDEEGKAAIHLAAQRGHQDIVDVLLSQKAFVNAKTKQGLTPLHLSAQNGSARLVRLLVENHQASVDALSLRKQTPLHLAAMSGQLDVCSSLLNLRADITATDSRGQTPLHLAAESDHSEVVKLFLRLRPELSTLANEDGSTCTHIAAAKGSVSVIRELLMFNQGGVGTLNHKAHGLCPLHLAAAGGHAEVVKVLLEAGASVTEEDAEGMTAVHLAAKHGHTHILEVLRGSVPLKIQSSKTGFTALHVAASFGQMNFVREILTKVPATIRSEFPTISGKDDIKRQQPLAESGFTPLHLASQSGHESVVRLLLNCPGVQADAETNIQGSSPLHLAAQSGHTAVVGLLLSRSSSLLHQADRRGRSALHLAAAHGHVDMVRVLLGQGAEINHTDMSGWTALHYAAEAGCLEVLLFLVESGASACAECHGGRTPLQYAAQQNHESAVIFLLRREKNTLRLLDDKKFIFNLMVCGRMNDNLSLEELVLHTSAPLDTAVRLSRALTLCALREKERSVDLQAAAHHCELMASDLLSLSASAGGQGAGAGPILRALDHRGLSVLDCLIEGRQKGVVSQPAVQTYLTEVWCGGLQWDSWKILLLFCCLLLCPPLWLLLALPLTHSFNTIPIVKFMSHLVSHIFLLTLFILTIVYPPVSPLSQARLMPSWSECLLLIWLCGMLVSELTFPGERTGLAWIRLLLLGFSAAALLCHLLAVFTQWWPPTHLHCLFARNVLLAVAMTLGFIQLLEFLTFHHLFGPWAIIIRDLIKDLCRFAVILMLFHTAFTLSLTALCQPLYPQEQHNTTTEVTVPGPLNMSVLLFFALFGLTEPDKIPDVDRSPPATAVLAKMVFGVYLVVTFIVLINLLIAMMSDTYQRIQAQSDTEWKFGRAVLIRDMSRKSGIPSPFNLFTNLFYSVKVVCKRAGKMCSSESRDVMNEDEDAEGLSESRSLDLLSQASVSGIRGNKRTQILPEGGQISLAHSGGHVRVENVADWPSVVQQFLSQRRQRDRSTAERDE
Sequence of Induced myeloid leukemia cell differentiation protein Mcl-1 (Q07820 whole entry): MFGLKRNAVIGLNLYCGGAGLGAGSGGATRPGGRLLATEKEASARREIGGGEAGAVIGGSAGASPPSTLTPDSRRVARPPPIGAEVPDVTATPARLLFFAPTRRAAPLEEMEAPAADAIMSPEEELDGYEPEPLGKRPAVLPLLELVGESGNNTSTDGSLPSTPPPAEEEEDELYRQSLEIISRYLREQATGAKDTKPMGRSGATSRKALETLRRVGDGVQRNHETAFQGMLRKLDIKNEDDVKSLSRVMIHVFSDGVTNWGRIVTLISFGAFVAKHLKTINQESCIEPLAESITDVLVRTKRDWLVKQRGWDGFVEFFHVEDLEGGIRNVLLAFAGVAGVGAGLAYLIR
Sequence of DNA dC->dU-editing enzyme APOBEC-3G (Q9HC16 whole entry): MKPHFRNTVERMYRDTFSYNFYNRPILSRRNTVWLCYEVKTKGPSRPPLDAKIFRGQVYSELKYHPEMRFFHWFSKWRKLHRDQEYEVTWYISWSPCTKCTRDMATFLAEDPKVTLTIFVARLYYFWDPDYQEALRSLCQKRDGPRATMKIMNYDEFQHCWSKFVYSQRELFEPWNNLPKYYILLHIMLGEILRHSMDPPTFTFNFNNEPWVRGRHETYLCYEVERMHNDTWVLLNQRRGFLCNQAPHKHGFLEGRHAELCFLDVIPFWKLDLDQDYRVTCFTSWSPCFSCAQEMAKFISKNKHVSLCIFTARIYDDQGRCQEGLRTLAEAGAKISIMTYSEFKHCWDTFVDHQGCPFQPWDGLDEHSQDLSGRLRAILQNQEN

SMILES: O=C1c2ccccc2CCCC12N=NCC2c1cccc2ccccc12 (stereo unspecified)
- EC50 [1]: > 29.9 µM (not active)
- EC50 [2]: 3.31 µM (active)

SMILES: CCOC(=O)C(CC)Sc1ccc2nnc(-c3cccnc3)n2n1 (stereo unspecified)
- EC50 [3]: > 195 µM (not active)
- EC50 [4]: > 50 µM (active)

SMILES: Oc1ccc(C(=S)N2CCN(c3cccc(Cl)c3)CC2)cc1
- IC50 [5]: 81 µM (active)

SMILES: Cc1ccc(CCNC(=O)c2cc(S(=O)(=O)N3CCCCC3)c[nH]2)cc1
- EC50 [4]: > 50 µM (active)

SMILES: C=C(C)Cn1c(C)cc(C)c(S(=O)(=O)c2ccccc2C)c1=O
- EC50 [1]: > 29.9 µM (not active)
- EC50 [2]: 5.9 µM (active)

SMILES: Cn1nc(-c2ccc(N3CCOCC3)c(NS(=O)(=O)c3ccccc3)c2)c2ccccc2c1=O
- IC50 [6]: > 80 µM (inactive)

SMILES: CN(C)c1ccc(C(CNC(=O)c2ccc(C#N)cc2)c2c[nH]c3ccccc23)cc1 (stereo unspecified)
- IC50 [7]: 2.78 µM (not active)

SMILES: COc1ccc(NC(=O)CN2C(=O)/C(=C3\SC(=S)N(C4CCS(=O)(=O)C4)C3=O)c3ccccc32)cc1 (stereo unspecified)
- IC50 [7]: 3.39 µM (active)

SMILES: CCOC(=O)c1sc(NC(=O)c2cc(-c3ccccc3C)nc3ccccc23)c(C#N)c1C
- EC50 [8]: 36.2 µM (active)
- IC50 [6]: 62.1 µM (inactive)
- AC50 [9]: 0.693 µM (active)
- EC50 [10]: > 150 µM (not active)
- EC50 [11]: 1.04 µM (active)
